Assay results taken from article PMC3465347, “Regulation of NF-κB Activation through a Novel PI-3K-Independent and PKA/Akt-Dependent Pathway in Human Umbilical Vein Endothelial Cells” (PLoS ONE, 2012).
“Also recorded” adds a separate entry of the source.

How the values were obtained:
[1] = Aqueous solubility of MPG derivatives; assay type: physicochemical
Experimental: Stock solutions of MPG and its derivatives (Tables S1, S2, S3) were prepared either in dimethylsulphoxide (DMSO) or cell culture medium. MPG and its derivatives were diluted to working concentrations in cell culture medium.

[2] = tested on: ICAM-1 mRNA in endothelial cells; experiment: RT-PCR of ICAM-1 transcript; assay type: cell-based, human; conditions: 400 µM pretreatment, TNF-α 10 ng/ml 4 h
Experimental: (§1) In order to examine whether MPTAG reduced the mRNA transcript levels of cell adhesion molecules genes, the endothelial cells were pretreated with 400 µM MPTAG for 2 h before induction with TNF-α for 4 h followed by RT-PCR. RNA was isolated from MPTAG-treated cells according to a modified guanidinium thiocyanate procedure. The expression of the transcripts for ICAM-1, VCAM-1 and E-selectin was evaluated by RT-PCR [45]. β-Actin levels expressed under similar conditions were used as a loading control.

[3] = tested on: VCAM-1 mRNA in endothelial cells; experiment: RT-PCR of VCAM-1 transcript; assay type: cell-based, human; conditions: 400 µM pretreatment, TNF-α 10 ng/ml 4 h
Experimental: as §1

[4] = tested on: E-selectin mRNA in endothelial cells; experiment: RT-PCR of E-selectin transcript; assay type: cell-based, human; conditions: 400 µM pretreatment, TNF-α 10 ng/ml 4 h
Experimental: as §1

[5] = tested on: NF-κB DNA-binding activity in HUVECs; experiment: NF-κB activation assay (EMSA) in nuclear extracts; assay type: cell-based, human
Experimental: (§2) The endothelial cells were subjected to the indicated treatments followed by induction with TNF-α for indicated time points or 30 mins. The cells were then washed with PBS and dislodged using a cell scraper. The cytoplasmic and nuclear extracts were prepared as described previously, [46].
NF-κB activation in the nuclear extracts of human endothelial cells was assessed by electrophoretic mobility shift assay (EMSA) as described previously, [46]. For supershift experiment, nuclear extracts prepared from unstimulated and TNF-α-stimulated cells were incubated with antibodies against the p50 or p65 subunit of NF-κB or -α-tubulin for 15 mins at 37°C before the complex was analyzed by EMSA. Addition of equal amount of radioactive-labelled probe to all the samples was indicated by the similar intensity of the unincorporated probe observed towards the end of the gel.

[6] = tested on: NF-κBp65 subunit translocation in HUVECs; experiment: NF-κB p65 nuclear translocation (western blot, immunocytochemistry); assay type: cell-based, human; conditions: 400 µM, TNF-α-induced
Experimental: as §2
To study the effect of MPTAG on nuclear translocation of NF-κBp65 subunit in presence of TNF-α-stimulation, the HUVECs were seeded on gelatinized glass bottom 6-well plate at a cell density of 0.3×10^6 cells/ml. Following day, media was changed and MPTAG was added to the cells for 2 h. After the end of drug pretreatment, cells were induced with TNF-α for 45 mins. The cell monolayers were washed with PBS (phosphate buffered saline containing 1 mM CaCl2 and 1 mM MgCl2) and were fixed in a solution, containing 4% paraformaldehyde in 120 mM sodium phosphate buffer pH 7.2–7.4, for 20 mins at room temperature. The cells were then permeabilized using a high salt buffer, containing 0.45 M NaCl and 20 mM sodium phosphate buffer pH 7.2–7.4, 0.3% Triton X-100 and 0.2% gelatin, for 1 h at room temperature. Following this, the cells were incubated with anti-NF-κBp65 antibody for 2 h at room temperature. […] The fluorescent signals were then quantitated by selecting the nuclear and cytoplasmic regions in different fields using the NTS imaging software. […]

[7] = tested on: NF-κB p65 phosphorylation in endothelial cells; experiment: p65 phosphorylation western blot; assay type: cell-based, human; conditions: 400 µM pretreatment
Experimental: (§3) Nuclear and cytoplasmic extracts were fractionated on SDS-PAGE with equal amount of proteins per well and transferred onto PVDF membranes and those membranes were incubated with appropriate primary antibodies and treated with HRP conjugated secondary antibodies followed by detection with DAB-H2O2 system. β-tubulin, α-actin and Lamin B1 were used as loading controls. Antibodies against NF-κBp65, phosphoNF-κBp65, IκBα, phosphoIκBα, IKK-β, Akt, phosphoAkt (Ser473) and phosphoAkt (Thr308) were used.

[8] = tested on: association of Akt with IKK-β; experiment: Akt/IKK-β association (co-immunoprecipitation); assay type: cell-based, human; conditions: dose-dependent and time-dependent
Experimental: In brief, confluent HUVECs were incubated with or without MPTAG and were stimulated with TNF-α (10 ng/ml) for 15 mins. The cells were washed and lysed in Lysis buffer containing 50 mM HEPES, pH 7.6, 10% glycerol, 1 mM sodium orthovanadate, 100 mM NaCl, 1% NP-40, 1 mM EDTA and protease inhibitor cocktail and allowed to swell on ice for 45 mins. Following centrifugation at 13,000 rpm for 45 mins, the supernatants were collected as “total cell extracts” and stored at −70°C. Immunoprecipitation was performed as per the instructions of Protein G immunoprecipitation kit (Sigma Aldrich, USA). Endogenous IKK complexes were immunoprecipitated in the following reaction mixtures: 100–300 µg of total cell extracts were incubated with 2–4 µg anti-IKK-β or PKAα antibody in 100 µl 1× IP buffer. After incubation for 16 h at 4°C with constant shaking, 50 µl of activated protein G beads were added and the mixture was incubated under rotation for an additional 3 h at 4°C.
as §3, with “Antibodies against NF-κBp65, phosphoNF-κBp65, IκBα, phosphoIκBα, IKK-β, Akt, phosphoAkt (Ser473) and phosphoAkt (Thr308) were used.” left out

[9] = tested on: p38 MAPK; experiment: p38 MAPK activation western blot; assay type: cell-based, human; conditions: MPTAG pretreatment
[10] = tested on: ERK1/2; experiment: ERK1/2 activation western blot; assay type: cell-based, human; conditions: MPTAG pretreatment

water solubility [1]: completely water soluble
TNF-α-induced NF-κB activation (EMSA), H-89 treatment preceding MPTAG ([5]; H-89 then MPTAG, TNF-α): remained increased
TNF-α-induced NF-κB activation (EMSA), MPTAG treatment preceding H-89 ([5]; MPTAG then H-89, TNF-α): inhibited
basal NF-κB activation ([5]; without TNF-α stimulation): no significant inhibitory effect
TNF-α-induced NF-κB activation (EMSA) in presence or absence of wortmannin ([5]; wortmannin before MPTAG, then TNF-α): inhibited similarly
Structure (SMILES): CC(=O)OC[C@H]1O[C@@H](Oc2c(C)occc2=O)[C@H](OC(C)=O)[C@@H](OC(C)=O)[C@@H]1OC(C)=O [MPTAG, 2-methyl-pyran-4-one-3-O-β-D-2′,3′,4′,6′-tetra-O-acetyl glucopyranoside]
TNF-α-induced ICAM-1 mRNA level [2]: significantly reduced
TNF-α-induced VCAM-1 mRNA level [3]: significantly reduced
TNF-α-induced E-selectin mRNA level [4]: significantly reduced
TNF-α-induced NF-κB DNA-binding activity / NF-κB activation (EMSA) ([5]; MPTAG 400 µM, dose-dependent): almost complete inhibition; also recorded: significantly inhibited
translocation of NF-κBp65 subunit into the nucleus [6]: prevented the translocation
TNF-α-induced p65 phosphorylation in the cytoplasm [7]: inhibits p65 phosphorylation
TNF-α-induced association of Akt with IKK-β [8]: significantly prevented
TNF-α-induced p38 activation [9]: no effect
TNF-α-induced ERK activation [10]: no effect
